This is an account of results in US8338599B2, “Compounds having a potentiating effect on the activity of ethionamide and uses thereof” (priority 2006, dated 2012).

Values joined by “and” are separate entries in the source; they are usually repeats but may differ in a detail not shown here. Equal values may be shown once.

For assay [1], the target named is T1, EthR protein (Mycobacterium tuberculosis, UniProt P9WMC1). The assay is described as follows: In vitro measurement of the IC50 (EthR/DNA binding, BIAcore). Also on record: species or system M. tuberculosis H37Rv. The gist of the method:
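Surface plasmon resonance (BIAcore) measurement of EthR binding to a specific 106-bp DNA fragment. Compounds tested at six concentrations spanning 0.11 μM to 27 μM; IC50 extrapolated from sigmoid curves.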
A general note: In SPR one partner is held on a chip, and binding of the other changes the refractive index at the surface.

A further assay has as its system M. tuberculosis H37Rv. As to the kind of experiment: Ethionamide-potentiating effect, RIA detection method on Bactec 460 in 12B medium. It counts as cell-based. Conditions: with 25 μM of compound.
The next assay concerns M. bovis BCG. It counts as cell-based, M. bovis BCG 1173P2. The conditions noted are these: from MIC of ETH alone (6 μM) and MIC of ETH with 25 μM compound.
The target in assay [2] is T1, EthR protein. As to the kind of experiment: Inhibition of interaction of EthR with its target DNA sequence (BIAcore). It counts as binding, M. tuberculosis H37Rv. The gist of the method: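 EthR (540 nM) was preincubated 5 min at 37 °C with compound at 3 μM, then injected by SPR over a streptavidin-captured biotinylated 106-bp ethA-R intergenic DNA, with a bla fragment as reference channel. Running buffer was 10 mM Tris-HCl pH 7.5, 200 mM NaCl, 0.1 mM EDTA, 1 mM DTT, 1% DMSO at 37 °C. Inhibition was taken from the specific-interaction signal at end of injection versus no ligand.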

Assay [3] has as its system Mycobacterium tuberculosis bacilli (strain H37RV). As to the kind of experiment: Agar gel well test of ETH potentiation in Petri dishes. Format: cell-based.

T1 sequence (P9WMC1 whole entry, looked up, the tested form may be a part): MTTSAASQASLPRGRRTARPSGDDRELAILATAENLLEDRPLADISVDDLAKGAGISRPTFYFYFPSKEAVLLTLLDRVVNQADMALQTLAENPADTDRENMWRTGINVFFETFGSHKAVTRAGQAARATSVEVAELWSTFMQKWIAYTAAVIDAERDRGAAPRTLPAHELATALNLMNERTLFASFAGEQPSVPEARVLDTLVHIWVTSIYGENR

In general, IC50 refers to the concentration that inhibits the measured activity by half. For orientation: inhibition means the relative decrease from the control value, in per cent. Lower therefore signals little suppression. For the compound `[N-]=[N+]=NCC(=O)N1CCC(c2nc(-c3cccs3)no2)CC1` [Compound I-1, 2-azido-1-[4-(3-thiophen-2-yl[1,2,4]oxadiazol-5-yl)piperid-1-yl]ethanone], the IC50 at EthR protein [1] came out at 1.54 µM. Further, the “ETH concentration giving the same growth-inhibiting effect” value with M. tuberculosis H37Rv was 0.1 μg/ml and 0.6 μM. Further, the Potentiation % in the assay with M. bovis BCG worked out at 2500%. 3 µM produced 33% inhibition on EthR protein [2] (compound 3 μM, EthR 540 nM, 37° C.). The compound also showed an inhibition at 1 µM against EthR protein [2] (footnote c: DNA 20 RU, EthR 200 nM, compound 1 μM) of 45%.

As to `CC(C)(C)OC(=O)N1CCC(c2nc(-c3cccs3)no2)CC1` [Compound I-3, t-butyl ester of 4-(3-thiophen-2-yl-1,2,4-oxadiazol-5-yl)piperidine-1-carboxylic acid], the “inhibition of mycobacterial growth around the well” value in assay [3] (20 nmol of compound alone (hole A2), three weeks 37° C.) is “does not show any bacterial toxicity”; in assay [3] (2 μg or 4 μg of ETH + 20 nmol of compound (holes C1 and C2)) it was “strongly inhibit the mycobacterial growth”. In assay [3] (combination with ETH, test behind the figure not stated), the “factor of reduction of the effective dose of ETH” value was “about 10 fold”.
